US12110276B2 (Genentech, Inc., priority 2021, dated 2024)

How the values were obtained:
[1] = biological target: TEAD1 (Homo sapiens (Human), UniProt P28347); experiment: TR-FRET lipid pocket probe competition assay (Lipid HTRF), TEAD1; format: binding; conditions: 4 hours pre-incubation; read-out: Lipid HTRF TEAD1 IC50;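 also: His-tagged TEAD1 with biotinylated probe, detected via Europium anti-His and XL665 streptavidin, probe displacement lowers TR-FRET signal, IC50 from four-parameter nonlinear fit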
[2] = biological target: TEAD2 (Homo sapiens (Human), UniProt Q15562);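 also: TR-FRET competition assay with His-tagged TEAD protein and a biotinylated lipid pocket probe, compound pre-incubated 30 min or 4 h at room temperature, displacement lowers signal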
[3] = biological target: TEAD4 (Homo sapiens (Human), UniProt Q15561); experiment: TR-FRET lipid pocket probe competition assay (Lipid HTRF), TEAD4; format: binding; conditions: 4 hours pre-incubation; read-out: Lipid HTRF TEAD4 IC50;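 also: His-tagged TEAD4 with biotinylated lipid-pocket probe, read by Europium anti-His and XL665 streptavidin, where probe displacement lowers the TR-FRET signal, IC50 from a four-parameter fit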
[4] = biological target: TEAD3 (Homo sapiens (Human), UniProt Q99594); experiment: TR-FRET lipid pocket probe competition assay (Lipid HTRF), TEAD3; format: binding; conditions: 4 hours pre-incubation; read-out: Lipid HTRF TEAD3 IC50
Chain of TEAD3 (Q99594 whole entry, species assumed): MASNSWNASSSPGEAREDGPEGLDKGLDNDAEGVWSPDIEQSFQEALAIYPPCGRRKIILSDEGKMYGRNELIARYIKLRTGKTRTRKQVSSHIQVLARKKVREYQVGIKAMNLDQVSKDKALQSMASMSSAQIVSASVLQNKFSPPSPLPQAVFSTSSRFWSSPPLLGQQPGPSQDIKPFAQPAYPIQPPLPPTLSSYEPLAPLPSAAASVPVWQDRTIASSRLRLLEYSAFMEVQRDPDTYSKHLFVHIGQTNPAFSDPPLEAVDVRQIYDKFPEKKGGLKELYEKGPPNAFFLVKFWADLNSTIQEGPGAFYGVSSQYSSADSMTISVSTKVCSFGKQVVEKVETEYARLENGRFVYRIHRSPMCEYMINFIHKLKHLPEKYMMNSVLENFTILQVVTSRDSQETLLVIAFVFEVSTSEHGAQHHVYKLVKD

Chain of TEAD2 (Q15562 whole entry, species assumed): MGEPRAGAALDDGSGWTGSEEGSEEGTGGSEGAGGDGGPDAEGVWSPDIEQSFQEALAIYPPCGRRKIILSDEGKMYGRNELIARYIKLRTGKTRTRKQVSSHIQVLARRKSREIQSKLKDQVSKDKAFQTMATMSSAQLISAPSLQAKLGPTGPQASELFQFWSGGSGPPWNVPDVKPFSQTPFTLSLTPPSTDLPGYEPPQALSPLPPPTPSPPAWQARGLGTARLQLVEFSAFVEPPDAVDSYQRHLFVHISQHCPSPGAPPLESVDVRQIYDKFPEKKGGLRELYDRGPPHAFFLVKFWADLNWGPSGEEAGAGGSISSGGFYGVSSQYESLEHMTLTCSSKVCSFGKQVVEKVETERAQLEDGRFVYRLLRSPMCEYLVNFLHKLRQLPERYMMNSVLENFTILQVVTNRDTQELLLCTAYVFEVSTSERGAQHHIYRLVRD
Chain of TEAD4 (Q15561 whole entry, species assumed): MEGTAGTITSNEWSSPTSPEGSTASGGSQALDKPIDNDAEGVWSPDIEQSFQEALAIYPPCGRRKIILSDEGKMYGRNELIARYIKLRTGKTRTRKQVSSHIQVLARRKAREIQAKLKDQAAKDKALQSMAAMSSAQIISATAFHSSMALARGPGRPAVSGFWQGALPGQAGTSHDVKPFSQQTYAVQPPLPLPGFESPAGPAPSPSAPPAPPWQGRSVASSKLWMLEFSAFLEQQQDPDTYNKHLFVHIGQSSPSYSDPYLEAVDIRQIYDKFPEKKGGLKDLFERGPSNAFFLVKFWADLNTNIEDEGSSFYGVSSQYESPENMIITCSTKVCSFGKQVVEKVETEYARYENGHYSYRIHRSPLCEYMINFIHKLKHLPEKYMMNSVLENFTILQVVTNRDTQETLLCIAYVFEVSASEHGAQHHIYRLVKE
Chain of TEAD1 (P28347 whole entry, species assumed): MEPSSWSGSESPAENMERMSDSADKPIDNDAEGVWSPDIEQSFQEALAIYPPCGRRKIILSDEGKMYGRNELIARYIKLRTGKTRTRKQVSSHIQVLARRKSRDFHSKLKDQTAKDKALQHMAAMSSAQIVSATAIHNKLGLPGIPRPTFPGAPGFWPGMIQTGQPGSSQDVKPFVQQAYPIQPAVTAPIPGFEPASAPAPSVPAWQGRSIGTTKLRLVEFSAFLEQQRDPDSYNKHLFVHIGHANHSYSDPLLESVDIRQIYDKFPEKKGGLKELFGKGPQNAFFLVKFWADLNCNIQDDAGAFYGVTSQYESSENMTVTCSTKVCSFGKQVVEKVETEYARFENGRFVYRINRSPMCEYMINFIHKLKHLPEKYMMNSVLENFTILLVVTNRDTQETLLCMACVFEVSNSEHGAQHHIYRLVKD

| IC50 [1] [nM] | IC50 [2] [nM] | IC50 [3] [nM] | IC50 [4] [nM] | SMILES |
| --- | --- | --- | --- | --- |
| 220 | 810 | 140 | 1200 | O=C(C1=CCOC1)N1CC(c2nn(-c3ccc(OC(F)(F)F)cc3)c3nccc(CO)c23)C1 [Compound 152, (2,5-Dihydrofuran-3-yl)(3-(4-(hydroxymethyl)-1-(4-(trifluoromethoxy)phenyl)-1H-pyrazolo[3,4-b]pyridin-3-yl)azetidin-1-yl)methanone] |
| 320 | 350 | 160 | 6900 | C=C(F)C(=O)NCc1nn(-c2ccc(OC(F)(F)F)cc2)c2nccc([C@H](O)CO)c12 [Compound 155, (S)-N-((4-(1,2-Dihydroxyethyl)-1-(4-(trifluoromethoxy)phenyl)-1H-pyrazolo[3,4-b]pyridin-3-yl)methyl)-2-fluoroacrylamide] |
| 33 | 25 | 7.8 | 740 | O=C(NCc1nn(-c2ccc(OC(F)(F)F)cc2)c2nccc([C@H](O)CO)c12)C1=CCC1 [Compound 156, (S)-N-((4-(1,2-Dihydroxyethyl)-1-(4-(trifluoromethoxy)phenyl)-1H-pyrazolo[3,4-b]pyridin-3-yl)methyl)cyclobut-1-enecarboxamide] |
| 51 | 690 | 64 | 4300 | C=C(F)C(=O)N1CC(c2nn(-c3ccc(OC(F)(F)F)cc3)c3nccc(-c4cnn(C)c4)c23)C1 [Compound 158, 2-Fluoro-1-(3-(4-(1-methyl-1H-pyrazol-4-yl)-1-(4-(trifluoromethoxy)phenyl)-1H-pyrazolo[3,4-b]pyridin-3-yl)azetidin-1-yl)prop-2-en-1-one] |
| 45 | 5.7 | 8.5 | 240 | C=C(C)S(=O)(=O)N1CC(c2nn(-c3ccc(OC(F)(F)F)cc3)c3nccc([C@H](O)CO)c23)C1 [Compound 159, (S)-1-(3-(1-(Prop-1-en-2-ylsulfonyl)azetidin-3-yl)-1-(4-(trifluoromethoxy)phenyl)-1H-pyrazolo[3,4-b]pyridin-4-yl)ethane-1,2-diol] |
| 76 | 15 | 43 | 1200 | C=C(C)S(=O)(=O)N1CC(c2nn(-c3ccc(OC(F)(F)F)cc3)c3nccc([C@@H](O)CO)c23)C1 [Compound 160, (R)-1-(3-(1-(prop-1-en-2-ylsulfonyl)azetidin-3-yl)-1-(4-(trifluoromethoxy)phenyl)-1H-pyrazolo[3,4-b]pyridin-4-yl)ethane-1,2-diol] |
| 47.9 | 129 | 32 | 2040 | C=CC(=O)NCc1nn(-c2ccc(OC(F)(F)F)cc2)c2nccc(-c3cnn(C)c3)c12 [Compound 164, N-((4-(1-methyl-1H-pyrazol-4-yl)-1-(4-(trifluoromethoxy)phenyl)-1H-pyrazolo[3,4-b]pyridin-3-yl)methyl)acrylamide] |
| 120 | 40 | 100 | 50000 | C=CC(=O)NCc1nn(-c2ccc(OC(F)(F)F)cc2)c2nccc(-c3cnn(CC(N)=O)c3)c12 [Compound 165, N-((4-(1-(2-amino-2-oxoethyl)-1H-pyrazol-4-yl)-1-(4-(trifluoromethoxy)phenyl)-1H-pyrazolo[3,4-b]pyridin-3-yl)methyl)acrylamide] |
| 57 | 210 | 35 | 1700 | C=CC(=O)NCc1nn(-c2ccc(OC(F)(F)F)cc2)c2nccc(-c3cnn(CCOC)c3)c12 [Compound 167, N-[[4-[1-(2-methoxyethyl)pyrazol-4-yl]-1-[4-(trifluoromethoxy)phenyl]pyrazolo[3,4-b]pyridin-3-yl]methyl]prop-2-enamide] |
| 140 | 1100 | 49 | 50000 | C=CC(=O)NCc1nn(-c2ccc(OC(F)(F)F)cc2)c2nccc(-c3cnn(CCS(C)(=O)=O)c3)c12 [Compound 168, N-((4-(1-(2-(methylsulfonyl)ethyl)-1H-pyrazol-4-yl)-1-(4-(trifluoromethoxy)phenyl)-1H-pyrazolo[3,4-b]pyridin-3-yl)methyl)acrylamide] |
| 120 | 355 | 92.8 | 26600 | C=CC(=O)NCc1nn(-c2ccc(OC(F)(F)F)cc2)c2nccc(-c3cnn(C(C)C)c3)c12 [Compound 170, N-[[4-(1-isopropylpyrazol-4-yl)-1-[4-(trifluoromethoxy)phenyl]pyrazolo[3,4-b]pyridin-3-yl]methyl]prop-2-enamide] |
| 60 | 330 | 29 | 810 | C=CC(=O)NCc1nn(-c2ccc(OC(F)(F)F)cc2)c2nccc(-c3cnn(C4COC4)c3)c12 [Compound 171, N-[[4-[1-(oxetan-3-yl)pyrazol-4-yl]-1-[4-(trifluoromethoxy)phenyl]pyrazolo[3,4-b]pyridin-3-yl]methyl]prop-2-enamide] |
| 470 | 810 | 150 | 19000 | C=CC(=O)NCc1nn(-c2ccc(OC(F)(F)F)cc2)c2nccc(-c3cnn(CCN(C)C)c3)c12 [Compound 172, N-[[4-[1-[2-(dimethylamino)ethyl]pyrazol-4-yl]-1-[4-(trifluoromethoxy)phenyl]pyrazolo[3,4-b]pyridin-3-yl]methyl]prop-2-enamide] |
| 86 | 382 | 52.5 | 26200 | C=CC(=O)NCc1nn(-c2ccc(OC(F)(F)F)cc2)c2nccc(-c3cnn(C4CC4)c3)c12 [Compound 173, N-((4-(1-cyclopropyl-1H-pyrazol-4-yl)-1-(4-(trifluoromethoxy)phenyl)-1H-pyrazolo[3,4-b]pyridin-3-yl)methyl)acrylamide] |
| 62 | 420 | 45 | 50000 | C=C(F)C(=O)N1CC(c2nn(-c3ccc(OC(F)(F)F)cc3)c3nccc(-c4cnn(C5COC5)c4)c23)C1 [Compound 175, 2-fluoro-1-(3-(4-(1-(oxetan-3-yl)-1H-pyrazol-4-yl)-1-(4-(trifluoromethoxy)phenyl)-1H-pyrazolo[3,4-b]pyridin-3-yl)azetidin-1-yl)prop-2-en-1-one] |
| 46 | 800 | 77 | 50000 | C=C(F)C(=O)N1CC(c2nn(-c3ccc(OC(F)(F)F)cc3)c3nccc(-c4cnn(CCOC)c4)c23)C1 [Compound 176, 2-fluoro-1-(3-(4-(1-(2-methoxyethyl)-1H-pyrazol-4-yl)-1-(4-(trifluoromethoxy)phenyl)-1H-pyrazolo[3,4-b]pyridin-3-yl)azetidin-1-yl)prop-2-en-1-one] |
| 86 | 890 | 120 | 50000 | C=C(F)C(=O)N1CC(c2nn(-c3ccc(OC(F)(F)F)cc3)c3nccc(-c4cnn(C5CC5)c4)c23)C1 [Compound 177, 1-(3-(4-(1-cyclopropyl-1H-pyrazol-4-yl)-1-(4-(trifluoromethoxy)phenyl)-1H-pyrazolo[3,4-b]pyridin-3-yl)azetidin-1-yl)-2-fluoroprop-2-en-1-one] |
